Reference: patent publication US7153885B2, “Stolonoxides” (Universidad de Cadiz, priority 2000, dated 2006)
Values after ≈ are worked out from the molar mass of the structure shown.

Assays:
Type in all cases: cell-based
[1] = test system: P-388 (suspension culture of a lymphoid neoplasm from DBA/2 mouse); experiment: Antitumour screening, P-388 cell growth (adapted Bergeron method); conditions: approximate IC50, three days of incubation, growth vs control wells
Experimental: (§1) Cell Cultures. Cells were maintained in logarithmic phase of growth in Eagle's Minimum Essential Medium, with Earle's Balanced Salts, with 2.0 mM L-glutamine, with non-essential amino acids, without sodium bicarbonate (EMEM/neaa); supplemented with 10% Fetal Calf Serum (FCS), 10^−2 M sodium bicarbonate and 0.1 g/l penicillin-G+streptomycin sulfate.
(§2) A simple screening procedure has been carried out to determine and compare the antitumour activity of these compounds, using an adapted form of the method described by Bergeron et al (1984). The tumour cell line employed were P-388 (suspension culture of a lymphoid neoplasm from DBA/2 mouse), A-549 (monolayer culture of a human lung carcinoma), HT-29 (monolayer culture of a human colon carcinoma) and MEL-28 (monolayer culture of a human melanoma).
(§3) P-388 cell were seeded into 16 mm wells at 1×10^4 cells per well in 1 ml aliquots of MEM 5FCS containing the indicated concentration of drug. A separate set of cultures without drug was seeded as control growth to ensure that cells remained in exponential phase of growth. All determinations were carried out in duplicate. After three days of incubation at 37° C., 10% CO2 in a 98% humid atmosphere, an approximate IC50 was determined by comparing the growth in wells with drug to the growth in wells contol.

[2] = test system: A-549 (monolayer culture of a human lung carcinoma); experiment: Antitumour screening, A-549 cell growth (crystal violet); conditions: approximate IC50, three days of incubation
Experimental: as §1, §2
as §3, with “A-549, HT-29 and MEL-28” for “P-388 cell”, “2×10^4” for “1×10^4”, “10FCS” for “5FCS”, “the wells were stained with 0.1% Crystal Violet. An” for “an”, “control.” for “contol.”

[3] = test system: HT-29 (monolayer culture of a human colon carcinoma); experiment: Antitumour screening, HT-29 cell growth (crystal violet); conditions: approximate IC50, three days of incubation
Experimental: as §1, §2
as §3, with “A-549, HT-29 and MEL-28” for “P-388 cell”, “2×10^4” for “1×10^4”, “10FCS” for “5FCS”, “the wells were stained with 0.1% Crystal Violet. An” for “an”, “control.” for “contol.”

[4] = test system: MEL-28 (monolayer culture of a human melanoma); experiment: Antitumour screening, MEL-28 cell growth (crystal violet); conditions: approximate IC50, three days of incubation
Experimental: as §1, §2
as §3, with “A-549, HT-29 and MEL-28” for “P-388 cell”, “2×10^4” for “1×10^4”, “10FCS” for “5FCS”, “the wells were stained with 0.1% Crystal Violet. An” for “an”, “control.” for “contol.”

IC50 ([1]; Mus musculus, P388, 72 h) [µg/mL] | IC50 ([2]; Homo sapiens, A549, 72 h) [µg/mL] | IC50 ([3]; Homo sapiens, HT-29, 72 h) [µg/mL] | IC50 P 388 [1] [µg/mL] | IC50 A 549 [2] [µg/mL] | IC50 HT 29 [3] [µg/mL] | IC50 MEL 28 [4] [µg/mL] | Compound
0.1 (≈ 0.238 µM) | 0.1 (≈ 0.238 µM) | 0.1 (≈ 0.238 µM) |  |  |  |  | C=CCC/C=C\C=C/CCCCCC[C@H]1CC[C@@H]([C@H]2CC[C@@H](CC(=O)OC)OO2)O1 [Methyl ester (1b), Stolonoxide A methyl ester]
 |  |  | 0.5 | 0.1 | 0.1 | 0.5 | Stolonoxide B methyl ester [Methyl ester (2b)]
